Laboratory results as given in PMC5487684, “Safety, Pharmacokinetics, and Antiviral Activity of a Novel HIV Antiviral, ABX464, in Treatment-Naive HIV-Infected Subjects in a Phase 2 Randomized, Controlled Study” (Antimicrobial Agents and Chemotherapy, 2017).

System: HIV-infected subjects
Test: Safety and tolerability (TEAEs, ECG, laboratory) after repeated oral administration, phase 2a study
Type: in vivo, human
Experimental: Participants were assigned to one of eight groups; each group (with one exception) included eight subjects receiving either ABX464 (n = 6) or the corresponding placebo (n = 2) according to a randomization code. […] In the present study with HIV-infected subjects, the first dose administered was 25 mg, given once or 3 times a day over a 2- to 3-week period. This initial dose was therefore considered safe for assessment of the safety and tolerability of ABX464 after repeated oral administrations in subjects infected by HIV and determination of the potential effect on the HIV viral load.
The final dosing protocol for each of the eight groups was as follows: group 1, 25 mg every 3 days for 2 to 3 weeks under fasted conditions; group 2, 25 mg once a day (q.d.) for 2 to 3 weeks under fasted conditions; group 3, 50 mg once a day for 2 to 3 weeks under fasted conditions; group 4, 50 mg 3 times a day (t.i.d.) for 4 weeks under fed conditions; group 5, 75 mg once a day for 2 weeks under fed conditions; group 6, 100 mg once a day for 2 to 3 weeks under fasted conditions; group 7, 150 mg every 3 days for 2 to 3 weeks under fed conditions; and group 8, 150 mg once a day for 2 weeks under fed conditions. Per the study protocol, the treatment period was defined as 2 weeks. […] The decision to proceed to the next highest dose was determined by the data and safety monitoring board after review of the laboratory safety data, vital signs, ECGs, and adverse event reports from the group receiving the current dose after 2 weeks of treatment.
Subjects were hospitalized from the day prior to the first dose to at least the morning of day 2. They were orally dosed with 25-mg capsules of ABX464 with 240 ml water under fed or fasted conditions. According to the group, subjects were dosed with 1, 2, 3, 4, or 6 capsules to deliver 25 mg, 50 mg, 75 mg, 100 mg, or 150 mg product, respectively, or the same number of placebo capsules.
Safety assessments and laboratory tests were carried out according to the schedules described in Table S4 for groups dosed every day, every 3 days, and 3 times a day. Follow-up visits were scheduled for 7 days after the last dose and subsequently once every week in order to assess the elimination of the main ABX464 metabolite and to assess the viral load. Follow-up visits were terminated when the virus load was within 0.5 log of the baseline value or after 3 follow-up visits, whichever came first. Prior to the statistical analyses, AEs were coded using the Medical Dictionary for Regulatory Activities (MedDRA dictionary; last available version) in order to be tabulated by system organ class (SOC) and preferred term (PT). The AEs were analyzed according to the treatment emergence phase from the first study drug administration on day 1 up to 48 h after the last study drug administration. The number and percentage of subjects with at least one TEAE were tabulated by SOC and PT for each group and dose. The number of occurrences of TEAEs was also analyzed in the same way by SOC and PT for each group and dose, by grade of severity for each group and dose, and by level of causality to the study drug for each group and dose.

[1] = Group 5 (n = 6), 75 mg q.d., fed, Mild
[2] = Group 5 (n = 6), 75 mg q.d., fed, Moderate
[3] = Group 6 (n = 6), 100 mg q.d., fasted, Mild
[4] = Group 6 (n = 6), 100 mg q.d., fasted, Moderate
[5] = Group 7 (n = 6), 150 mg every 3 days, fed, Mild

In the case of FC(F)(F)Oc1ccc(Nc2ccc3cccc(Cl)c3n2)cc1 [ABX464], the “Subjects experiencing at least one TEAE: Arthralgia” value (“Subjects experiencing … Arthralgia” for short) [1] is reported as 0 (0.0) No. (%), the “Subjects experiencing at least one TEAE: Back pain” value [1] is reported as 0 (0.0) No. (%) and the “Subjects experiencing at least one TEAE: Diarrhea” value (“Subjects experiencing … Diarrhea” for short) [1] is reported as 1 (16.7) No. (%). The “Subjects experiencing at least one TEAE: Flank pain” value (shortened to “Subjects experiencing … Flank pain”) [1] was 0 (0.0) No. (%), the “Subjects experiencing at least one TEAE: Gastrointestinal disorders” value [1] was 5 (83.3) No. (%) and the “Subjects experiencing at least one TEAE: Headache” value (“Subjects experiencing … Headache” below) [1] was 5 (83.3) No. (%). The “Subjects experiencing at least one TEAE: Injury, poisoning, and procedural complications” value [1] was 0 (0.0) No. (%), the “Subjects experiencing at least one TEAE: Musculoskeletal and connective tissue disorders” value [1] was 0 (0.0) No. (%) and the “Subjects experiencing at least one TEAE: Nausea” value (“Subjects experiencing … Nausea” below) [1] was 3 (50.0) No. (%). The “Subjects experiencing at least one TEAE: Neck pain” value (from here on “Subjects experiencing … Neck pain”) [1] was 0 (0.0) No. (%), the “Subjects experiencing at least one TEAE: Nervous system disorders” value [1] was 5 (83.3) No. (%) and the “Subjects experiencing at least one TEAE: Pain in extremity” value (from here on “Subjects experiencing … in extremity”) [1] was 0 (0.0) No. (%). For the same molecule, the “Subjects experiencing at least one TEAE: Sciatica, back pain” value [1] was 0 (0.0) No. (%), the “Subjects experiencing at least one TEAE: Skin abrasion” value (from here on “Subjects experiencing … Skin abrasion”) [1] was 0 (0.0) No. (%) and the “Subjects experiencing at least one TEAE: Total” value (from here on “Subjects experiencing … Total”) [1] was 6 (100.0) No. (%). For the same molecule, the “Subjects experiencing at least one TEAE: Upper abdominal pain” value [1] was 0 (0.0) No. (%), the “Subjects experiencing at least one TEAE: Vomiting” value (from here on “Subjects experiencing … Vomiting”) [1] was 4 (66.7) No. (%) and the “Subjects experiencing at least one TEAE: Abdominal pain” value [2] was 0 (0.0) No. (%). The “Subjects experiencing … Arthralgia” value [2] was 0 (0.0) No. (%), the “Subjects experiencing at least one TEAE: Back pain” value [2] was 0 (0.0) No. (%) and the “Subjects experiencing … Diarrhea” value [2] was 0 (0.0) No. (%). For the same molecule, the “Subjects experiencing … Flank pain” value [2] was 0 (0.0) No. (%), the “Subjects experiencing at least one TEAE: Gastrointestinal disorders” value [2] was 1 (16.7) No. (%) and the “Subjects experiencing … Headache” value [2] was 0 (0.0) No. (%). For the same molecule, the “Subjects experiencing at least one TEAE: Injury, poisoning, and procedural complications” value [2] was 0 (0.0) No. (%), the “Subjects experiencing at least one TEAE: Musculoskeletal and connective tissue disorders” value [2] was 0 (0.0) No. (%) and the “Subjects experiencing … Nausea” value [2] was 1 (16.7) No. (%). The “Subjects experiencing … Neck pain” value [2] was 0 (0.0) No. (%), the “Subjects experiencing at least one TEAE: Nervous system disorders” value [2] was 0 (0.0) No. (%) and the “Subjects experiencing … in extremity” value [2] was 0 (0.0) No. (%). The “Subjects experiencing at least one TEAE: Sciatica, back pain” value [2] was 0 (0.0) No. (%), the “Subjects experiencing … Skin abrasion” value [2] was 0 (0.0) No. (%) and the “Subjects experiencing … Total” value [2] was 1 (16.7) No. (%). The “Subjects experiencing at least one TEAE: Upper abdominal pain” value [2] was 0 (0.0) No. (%), the “Subjects experiencing … Vomiting” value [2] was 0 (0.0) No. (%) and the “Subjects experiencing at least one TEAE: Abdominal pain” value [3] was 0 (0.0) No. (%). For the same molecule, the “Subjects experiencing … Arthralgia” value [3] was 0 (0.0) No. (%), the “Subjects experiencing at least one TEAE: Back pain” value [3] was 0 (0.0) No. (%) and the “Subjects experiencing … Diarrhea” value [3] was 0 (0.0) No. (%). The “Subjects experiencing … Flank pain” value [3] was 0 (0.0) No. (%), the “Subjects experiencing at least one TEAE: Gastrointestinal disorders” value [3] was 2 (33.3) No. (%) and the “Subjects experiencing … Headache” value [3] was 5 (83.3) No. (%). For the same molecule, the “Subjects experiencing at least one TEAE: Injury, poisoning, and procedural complications” value [3] was 0 (0.0) No. (%), the “Subjects experiencing at least one TEAE: Musculoskeletal and connective tissue disorders” value [3] was 0 (0.0) No. (%) and the “Subjects experiencing … Nausea” value [3] was 0 (0.0) No. (%). For the same molecule, the “Subjects experiencing … Neck pain” value [3] was 0 (0.0) No. (%), the “Subjects experiencing at least one TEAE: Nervous system disorders” value [3] was 5 (83.3) No. (%) and the “Subjects experiencing … in extremity” value [3] was 0 (0.0) No. (%). For the same molecule, the “Subjects experiencing at least one TEAE: Sciatica, back pain” value [3] was 0 (0.0) No. (%), the “Subjects experiencing … Skin abrasion” value [3] was 0 (0.0) No. (%) and the “Subjects experiencing … Total” value [3] was 6 (100.0) No. (%). The “Subjects experiencing at least one TEAE: Upper abdominal pain” value [3] was 2 (33.3) No. (%), the “Subjects experiencing … Vomiting” value [3] was 0 (0.0) No. (%) and the “Subjects experiencing at least one TEAE: Abdominal pain” value [4] was 0 (0.0) No. (%). For the same molecule, the “Subjects experiencing … Arthralgia” value [4] was 0 (0.0) No. (%), the “Subjects experiencing at least one TEAE: Back pain” value [4] was 0 (0.0) No. (%) and the “Subjects experiencing … Diarrhea” value [4] was 0 (0.0) No. (%). The “Subjects experiencing … Flank pain” value [4] was 0 (0.0) No. (%), the “Subjects experiencing at least one TEAE: Gastrointestinal disorders” value [4] was 1 (16.7) No. (%) and the “Subjects experiencing … Headache” value [4] was 0 (0.0) No. (%). The “Subjects experiencing at least one TEAE: Injury, poisoning, and procedural complications” value [4] was 0 (0.0) No. (%), the “Subjects experiencing at least one TEAE: Musculoskeletal and connective tissue disorders” value [4] was 0 (0.0) No. (%) and the “Subjects experiencing … Nausea” value [4] was 0 (0.0) No. (%). The “Subjects experiencing … Neck pain” value [4] was 0 (0.0) No. (%), the “Subjects experiencing at least one TEAE: Nervous system disorders” value [4] was 0 (0.0) No. (%) and the “Subjects experiencing … in extremity” value [4] was 0 (0.0) No. (%). For the same molecule, the “Subjects experiencing at least one TEAE: Sciatica, back pain” value [4] was 0 (0.0) No. (%), the “Subjects experiencing … Skin abrasion” value [4] was 0 (0.0) No. (%) and the “Subjects experiencing … Total” value [4] was 3 (50.0) No. (%). The “Subjects experiencing at least one TEAE: Upper abdominal pain” value [4] was 1 (16.7) No. (%), the “Subjects experiencing … Vomiting” value [4] was 0 (0.0) No. (%) and the “Subjects experiencing at least one TEAE: Abdominal pain” value [5] was 0 (0.0) No. (%). The “Subjects experiencing … Arthralgia” value [5] was 1 (16.7) No. (%), the “Subjects experiencing at least one TEAE: Back pain” value [5] was 0 (0.0) No. (%) and the “Subjects experiencing … Diarrhea” value [5] was 0 (0.0) No. (%).
